# Laboratory results: patent US11426412B2, “Imidazo-pyridine compounds as PAD inhibitors” (JUBILANT EPIPAD LLC, priority 2017, dated 2022)
# How the values were obtained:
# PAD4 [1] = biological target: T1, PAD4 (Homo sapiens (Human), UniProt Q9UM07); assay: FP binding assay; conditions: for actively inhibiting PAD4 enzyme activity, FP Binding assay: summary of Table 1
# PAD4 [2] = biological target: T1, PAD4; assay: Ammonia release biochemical assay (citrullination)
# [3] = read-out: NH3 release biochemical assay PAD4 IC50
# [4] = Table 1, class A, read-out: IC50 value, ammonia release biochemical assay
# T1 sequence (Q9UM07 whole entry): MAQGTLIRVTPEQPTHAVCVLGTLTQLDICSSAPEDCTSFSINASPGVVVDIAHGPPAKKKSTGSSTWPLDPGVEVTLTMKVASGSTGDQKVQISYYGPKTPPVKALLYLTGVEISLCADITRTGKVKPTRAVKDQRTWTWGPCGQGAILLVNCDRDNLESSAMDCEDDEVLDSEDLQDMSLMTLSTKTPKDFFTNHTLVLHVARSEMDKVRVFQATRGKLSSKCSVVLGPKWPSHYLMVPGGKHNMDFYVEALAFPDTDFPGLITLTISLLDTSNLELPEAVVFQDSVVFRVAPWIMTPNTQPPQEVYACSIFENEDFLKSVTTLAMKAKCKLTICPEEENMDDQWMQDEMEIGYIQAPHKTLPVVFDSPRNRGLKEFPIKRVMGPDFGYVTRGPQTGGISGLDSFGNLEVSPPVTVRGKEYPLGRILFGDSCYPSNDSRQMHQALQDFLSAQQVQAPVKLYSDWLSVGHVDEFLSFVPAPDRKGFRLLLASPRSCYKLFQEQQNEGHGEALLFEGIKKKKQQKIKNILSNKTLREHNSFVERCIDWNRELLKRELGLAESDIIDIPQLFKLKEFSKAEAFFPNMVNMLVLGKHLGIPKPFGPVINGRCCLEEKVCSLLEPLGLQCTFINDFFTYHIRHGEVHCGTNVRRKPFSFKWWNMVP
Structure (SMILES),IC50 (PAD4 [1]) [nM],"actively inhibiting PAD4 enzyme activity, FP Binding assay (PAD4 [1])",IC50 (PAD4 [2]; [3]) [nM],IC50 (PAD4 [2]; [4]) [nM]
"Cc1cccc2cc(-c3nc4cc(C(=O)N5CCC[C@@H](N)C5)ccn4c3C)n(CC3CC3)c12 [Compound 30, (R)-(3-Aminopiperidin-1-yl)(2-(1-(cyclopropylmethyl)-7-methyl-1H-indol-2-yl)-3-methylimidazo[1,2-a]pyridin-7-yl)methanone]",< 1000,,< 1000,
"Cc1c(-c2cc3ccc(F)cc3n2CC2CC2)nc2cc(C(=O)N3CCC[C@@H](N)C3)ccn12 [Compound 28, (R)-(3-Aminopiperidin-1-yl)(2-(1-(cyclopropylmethyl)-6-fluoro-1H-indol-2-yl)-3-methylimidazo[1,2-a]pyridin-7-yl)methanone]",< 1000,,< 1000,
"Cc1c(-c2cc3ccccc3n2Cc2ccc(F)cc2)nc2cc(C(=O)N3CCC[C@@H](N)C3)ccn12 [Compound 13, (R)-(3-Aminopiperidin-1-yl)(2-(1-(4-fluorobenzyl)-1H-indol-2-yl)-3-methylimidazo[1,2-a]pyridin-7-yl)methanone]",< 1000,actively inhibiting PAD4 enzyme activity,< 1000,≤ 1000
"Cc1c(-c2cc3cc(F)ccc3n2CC2CC2)nc2cc(C(=O)N3CCC[C@@H](N)C3)ccn12 [Compound 29, (R)-(3-Aminopiperidin-1-yl)(2-(1-(cyclopropylmethyl)-5-fluoro-1H-indol-2-yl)-3-methylimidazo[1,2-a]pyridin-7-yl)methanone]",< 1000,,< 1000,
"CCn1c(-c2nc3cc(C(=O)N4CCC[C@@H](N)C4)ccn3c2C)cc2cc(F)ccc21 [Compound 39, (R)-(3-aminopiperidin-1-yl)(2-(1-ethyl-5-fluoro-1H-indol-2-yl)-3-methylimidazo[1,2-a]pyridin-7-yl)methanone]",< 1000,actively inhibiting PAD4 enzyme activity,< 1000,≤ 1000
"Cc1c(-c2cc3ccc(F)cc3n2CC(C)C)nc2cc(C(=O)N3CCC[C@@H](N)C3)ccn12 [Compound 73, (R)-(3-aminopiperidin-1-yl)(2-(6-fluoro-1-isobutyl-1H-indol-2-yl)-3-methylimidazo[1,2-a]pyridin-7-yl)methanone]",,,< 1000,
"Cc1c(-c2cc3ccc(F)cc3n2Cc2cccnc2)nc2cc(C(=O)N3CCC[C@@H](N)C3)ccn12 [Compound 69, (R)-(3-aminopiperidin-1-yl)(2-(6-fluoro-1-(pyridin-3-ylmethyl)-1H-indol-2-yl)-3-methylimidazo[1,2-a]pyridin-7-yl)methanone]",,,< 1000,
"COc1ccc(Cn2c(-c3nc4cc(C(=O)N5CCC[C@@H](N)C5)ccn4c3C)cc3ccccc32)nc1 [Compound 63, (R)-(3-aminopiperidin-1-yl)(2-(1-((5-methoxypyridin-2-yl)methyl)-1H-indol-2-yl)-3-methylimidazo[1,2-a]pyridin-7-yl)methanone]",,,< 1000,
"Cc1c(-c2cc3ccccc3n2C)nc2cc(C(=O)N3CCC[C@@H](N)C3)ccn12 [Compound 46, (R)-(3-aminopiperidin-1-yl)(3-methyl-2-(1-methyl-1H-indol-2-yl)imidazo[1,2-a]pyridin-7-yl)methanone]",,,> 10000,
"COc1ccc2cc(-c3nc4cc(C(=O)N5CCC[C@@H](N)C5)ccn4c3C)n(CC3CC3)c2c1 [Compound 23, (R)-(3-Aminopiperidin-1-yl)(2-(1-(cyclopropylmethyl)-6-methoxy-1H-indol-2-yl)-3-methylimidazo[1,2-a]pyridin-7-yl)methanone]",< 1000,actively inhibiting PAD4 enzyme activity,< 1000,
"Cc1c(-c2cc3ccccc3n2CC2CCC2)nc2cc(C(=O)N3CCC[C@@H](N)C3)ccn12 [Compound 61, (R)-(3-aminopiperidin-1-yl)(2-(1-(cyclobutylmethyl)-1H-indol-2-yl)-3-methylimidazo[1,2-a]pyridin-7-yl)methanone]",,,< 1000,
"CCn1c(-c2nc3cc(C(=O)N4CCC[C@@H](N)C4)ccn3c2C)c(-c2ccccc2)c2ccccc21 [Compound 5, (R)-(3-Aminopiperidin-1-yl)(2-(1-ethyl-3-phenyl-1H-indol-2-yl)-3-methylimidazo[1,2-a]pyridin-7-yl)methanone]",,,> 10000,
"Cc1c(-c2cc3ccccc3n2Cc2ccccn2)nc2cc(C(=O)N3CCC[C@@H](N)C3)ccn12 [Compound 16, (R)-(3-Aminopiperidin-1-yl)(3-methyl-2-(1-(pyridin-2-ylmethyl)-1H-indol-2-yl)imidazo[1,2-a]pyridin-7-yl)methanone]",< 1000,actively inhibiting PAD4 enzyme activity,< 1000,
"CCn1c(-c2nc3cc(C(=O)N4CCC[C@@H](N)C4)ccn3c2C)cc2ccccc21 [Compound 4, (R)-(3-Aminopiperidin-1-yl)(2-(1-ethyl-1H-indol-2-yl)-3-methylimidazo[1,2-a]pyridin-7-yl)methanone]",,,< 1000,≤ 1000

# The next lines start with the values.
IC50 (PAD4 [1]) [nM],"actively inhibiting PAD4 enzyme activity, FP Binding assay (PAD4 [1])",IC50 (PAD4 [2]; [3]) [nM],IC50 (PAD4 [2]; [4]) [nM],Structure (SMILES)
< 1000,actively inhibiting PAD4 enzyme activity,< 1000,,"Cc1c(-c2cc3ccccc3n2Cc2ccsc2)nc2cc(C(=O)N3CCC[C@@H](N)C3)ccn12 [Compound 36, (R)-(3-aminopiperidin-1-yl)(3-methyl-2-(1-(thiophen-3-ylmethyl)-1H-indol-2-yl)imidazo[1,2-a]pyridin-7-yl)methanone]"
> 10000,,> 10000,,"N[C@@H]1CCCN(C(=O)c2ccn3c(-c4ccccc4)c(-c4cc5ccccc5n4CC4CC4)nc3c2)C1 [Compound 32, (R)-(3-Aminopiperidin-1-yl)(2-(1-(cyclopropylmethyl)-1H-indol-2-yl)-3-phenylimidazo[1,2-a]pyridin-7-yl)methanone]"
,,> 10000,,"Cc1c(-c2cc3ccccc3n2CC2CC2)nc2cc(C(=O)N3CC[C@@H](N)C3)ccn12 [Compound 8, (R)-(3-Aminopyrrolidin-1-yl)(2-(1-(cyclopropylmethyl)-1H-indol-2-yl)-3-methylimidazo[1,2-a]pyridin-7-yl)methanone]"
,,< 1000,≤ 1000,"COc1cccc2cc(-c3nc4cc(C(=O)N5CCC[C@@H](N)C5)ccn4c3C)n(CC3CC3)c12 [Compound 47, (R)-(3-aminopiperidin-1-yl)(2-(1-(cyclopropylmethyl)-7-methoxy-1H-indol-2-yl)-3-methylimidazo[1,2-a]pyridin-7-yl)methanone]"
,,< 1000,,"COCCn1c(-c2nc3cc(C(=O)N4CCC[C@@H](N)C4)ccn3c2C)cc2ccccc21 [Compound 64, (R)-(3-aminopiperidin-1-yl) (2-(1-(2-methoxyethyl)-1H-indol-2-yl)-3-methylimidazo[1,2-a]pyridin-7-yl)methanone]"
,,< 1000,≤ 1000,"Cc1ncc(Cn2c(-c3nc4cc(C(=O)N5CCC[C@@H](N)C5)ccn4c3C)cc3ccccc32)s1 [Compound 49, (R)-(3-aminopiperidin-1-yl)(3-methyl-2-(1-((2-methylthiazol-5-yl)methyl)-1H-indol-2-yl)imidazo[1,2-a]pyridin-7-yl)methanone]"
